Measured values as given in patent US10208015B2, “Aryl-triazolyl pyridines as pest control agents” (BAYER ANIMAL HEALTH GMBH, priority 2014, dated 2019).
Like-named read-outs stand apart in the source and are kept apart here.

Key:
[1] = system: Phaedon cochleariae; assay: Phaedon cochleariae spray test; type: in vivo; settings: application rate 100 g/ha, after 7 days
Protocol: Phaedon Cochleariae—Spray Test
(§1) • Solvent: 78.0 parts by weight of acetone • 1.5 parts by weight of dimethylformamide • Emulsifier: alkylaryl polyglycol ether
(§2) To produce a suitable preparation of active compound, 1 part by weight of active compound is dissolved using the stated parts by weight of solvent and made up with water containing an emulsifier concentration of 1000 ppm until the desired concentration is attained. To produce further test concentrations, the preparation is diluted with emulsifier-containing water.
After 7 days, the efficacy in % is determined. 100% means that all the beetle larvae have been killed; 0% means that no beetle larvae have been killed.

[2] = system: Ctenocephalides felis; assay: Ctenocephalides felis oral test; type: in vivo; settings: application rate 100 ppm in citrated cattle blood, after 2 days
Excerpt: Ctenocephalides felis—Oral Test • Solvent: dimethyl sulphoxide […] Dilution with citrated cattle blood gives the desired concentration. About 20 unfed adult cat fleas (Ctenocephalides felis) are placed into a chamber which is closed at the top and bottom with gauze. A metal cylinder whose bottom end is closed with parafilm is placed onto the chamber. The cylinder contains the blood/active compound preparation, which can be imbibed by the fleas through the parafilm membrane.

[3] = system: Myzus persicae; assay: Myzus persicae spray test; type: in vivo; settings: application rate 100 g/ha, after 6 days
Protocol: Myzus Persicae—Spray Test […] To produce further test concentrations, the preparation is diluted with emulsifier-containing water. Discs of Chinese cabbage leaves (Brassica pekinensis) infested by all stages of the green peach aphid (Myzus persicae) are sprayed with an active compound preparation of the desired concentration.

[4] = system: Ctenocephalides felis; assay: Ctenocephalides felis in vitro contact test with adult cat fleas; type: in vivo; settings: application rate 500 g/ha (5 μg/cm^2), after 48 h
Protocol: Ctenocephalides felis—In Vitro Contact Tests with Adult Cat Fleas
(§3) For the coating of the test tubes, 9 mg of active compound are first dissolved in 1 ml of acetone p.a. and then diluted to the desired concentration with acetone p.a. 250 μl of the solution are distributed homogeneously on the inner walls and the base of a 25 ml test tube by turning and rocking on an orbital shaker (rocking rotation at 30 rpm for 2 h). With 900 ppm active compound solution and internal surface 44.7 cm^2, given homogeneous distribution, an area-based dose of 5 μg/cm^2 is achieved.
After the solvent has evaporated off, the tubes are populated with 5-10 adult cat fleas (Ctenocephalides felis), sealed with a perforated plastic lid and incubated in a horizontal position at room temperature and ambient humidity. After 48 h, efficacy is determined. To this end, the test tubes are stood upright and the fleas are knocked to the base of the tube. Fleas which remain motionless at the base or move in an uncoordinated manner are considered to be dead or moribund.
100% efficacy means that all the fleas were dead or moribund. 0% efficacy means that no fleas were harmed.

[5] = system: Boophilus microplus Parkhurst strain, SP-resistant; assay: Boophilus microplus dip test; type: in vivo; settings: application rate 100 ppm, assessed after 7 days
Protocol: Boophilus microplus—Dip Test
• Test animals: cattle ticks (Boophilus microplus) Parkhurst strain, SP-resistant • Solvent: dimethyl sulphoxide
10 mg of active compound are dissolved in 0.5 ml of dimethyl sulphoxide. To produce a suitable formulation, the active compound solution is diluted with water to the concentration desired in each case.
This active compound preparation is pipetted into tubes. 8-10 engorged adult female cattle ticks (Boophilus microplus) are transferred into a further tube with holes. The tube is immersed into the active compound preparation, and all the ticks are completely wetted. After the liquid has run out, the ticks are transferred on filter discs into plastic dishes and stored in a climate-controlled room.
Efficacy is assessed after 7 days by laying of fertile eggs. Eggs which are not visibly fertile are stored in a climate-controlled cabinet until the larvae hatch after about 42 days. An efficacy of 100% means that none of the ticks has laid any fertile eggs; 0% means that all the eggs are fertile.

[6] = system: Boophilus microplus; assay: Boophilus microplus injection test; type: in vivo; settings: application rate 20 μg/animal, assessed after 7 days
Protocol: Boophilus microplus—Injection Test • Solvent: dimethyl sulphoxide […] The animals are transferred into dishes and kept in a climate-controlled room. Efficacy is assessed after 7 days by laying of fertile eggs. Eggs which are not visibly fertile are stored in a climate-controlled cabinet until the larvae hatch after about 42 days.

[7] = logP by HPLC on reversed-phase column (C18), EEC Directive 79/831 Annex V.A8; type: physicochemical
[8] = system: Musca domestica; assay: Musca domestica test; type: in vivo; settings: application rate 100 ppm, adult houseflies, after 2 days
Protocol: (§4) • Solvent: dimethyl sulphoxide
(§5) To produce a suitable preparation of active compound, 10 mg of active compound are mixed with 0.5 ml of dimethyl sulphoxide, and the concentrate is diluted with water to the desired concentration.
Vessels containing a sponge treated with sugar solution and the active compound preparation of the desired concentration are populated with 10 adult houseflies (Musca domestica).
After 2 days, the kill in % is determined. 100% means that all of the flies have been killed; 0% means that none of the flies have been killed.

[9] = system: Lucilia cuprina; assay: Lucilia cuprina test; type: in vivo; settings: application rate 100 ppm, L1 larvae, after 2 days
Protocol: as §4, §5
About 20 L1 larvae of the Australian sheep blowfly (Lucilia cuprina) are transferred into a test vessel containing minced horsemeat and the active compound preparation of the desired concentration.
After 2 days, the kill in % is determined. 100% means that all the larvae have been killed; 0% means that no larvae have been killed.

[10] = system: Spodoptera frugiperda; assay: Spodoptera frugiperda spray test; type: in vivo; settings: application rate 100 g/ha, after 7 days
Protocol: Spodoptera Frugiperda—Spray Test
as §1, §2
Leaf discs of maize (Zea mays) are sprayed with an active compound preparation of the desired concentration and, after drying, populated with caterpillars of the armyworm (Spodopterafrugiperda).
After 7 days, the efficacy in % is determined. 100% means that all the caterpillars have been killed; 0% means that no caterpillars have been killed.

[11] = system: Amblyomma hebraeum; assay: Amblyomma hebraeum test (tick nymphs, immersion); type: in vivo; settings: application rate 100 ppm, after 42 days
Excerpt: Amblyomma hebaraeum Test • Solvent: dimethyl sulphoxide […] Tick nymphs (Amblyomma hebraeum) are placed into perforated plastic beakers and immersed in the desired concentration for one minute. The ticks are transferred on filter paper into a Petri dish and stored in a climate-controlled cabinet.

[12] = system: Tetranychus urticae; assay: Tetranychus urticae spray test, OP-resistant; type: in vivo; settings: application rate 100 g/ha, after 6 days
Protocol: Tetranychus Urticae—Spray Test, OP-Resistant
as §1
To produce further test concentrations, the preparation is diluted with emulsifier-containing water.
After 6 days, the efficacy in % is determined. 100% means that all the spider mites have been killed; 0% means that none of the spider mites have been killed.

[13] = system: Rhipicephalus sanguineus; assay: Rhipicephalus sanguineus in vitro contact test with adult brown dog ticks; type: in vivo; settings: application rate 500 g/ha (5 μg/cm^2), after 48 h
Protocol: Rhipicephalus sanguineus—In Vitro Contact Tests with Adult Brown Dog Ticks
as §3
After the solvent has evaporated off, the tubes are populated with 5-10 adult dog ticks (Rhipicephalus sanguineus), sealed with a perforated plastic lid and incubated in a horizontal position in the dark at room temperature and ambient humidity. After 48 h, efficacy is determined. To this end, the ticks are knocked to the floor of the tube and incubated on a hotplate at 45-50° C. for not more than 5 min. Ticks which remain motionless on the floor or move in such an uncoordinated manner that they are unable to deliberately avoid the heat by climbing upwards are considered to be dead or moribund.
An efficacy of 100% means that all the ticks were dead or moribund. 0% efficacy means that none of the ticks had been harmed.

[14] = system: Anopheles gambiae strain RSPH (homozygot kdr); settings: application rate 40 mg/m^2, exposure 30 minutes, 24 hours after contact
Protocol: Anopheles Test (ANPHGB Surface Treatment)
(§6) • Solvent: acetone+2000 ppm rapeseed oil methyl ester (RME)
The exposure time is 30 minutes.
(§7) 24 hours after contact with the treated surface, mortality in % is determined. 100% means that all the mosquitoes have been killed; 0% means that none of the mosquitoes have been killed.

[15] = system: Anopheles funestus strain FUMOZ-R; settings: application rate 40 mg/m^2, exposure 30 minutes, 24 hours after contact
Protocol: Anopheles Test (ANPHFU Surface Treatment)
as §6
The exposure time is 30 minutes.
as §7

[16] = HPLC, C18, acetonitrile (0.1% formic acid)/water (0.09% formic acid) gradient

Row | SMILES | efficacy in % [1] [%] | efficacy (kill in %) [2] [%] | efficacy in % [3] [%] | efficacy (fleas dead or moribund) [4] [%] | efficacy (laying of fertile eggs) [5] [%] | efficacy (laying of fertile eggs) [6] [%] | chromatographic logP ([7]; reversed-phase C18 HPLC column, HPLC, C18, acetonitrile (0.1% formic acid)/water (0.09% formic acid) gradient, read-out: logP) | chromatographic logP ([7]; reversed-phase C18 HPLC column, HPLC-MS method a), read-out: log P (HPLC-MS)) | efficacy (kill in %) [8] [%] | efficacy (kill in %) [9] [%] | efficacy in % [10] [%] | efficacy (kill in %) [11] [%] | efficacy in % [12] [%] | efficacy (ticks dead or moribund) [13] [%] | logP [7, 16] | efficacy (mortality in %) [14] | efficacy (mortality in %) [15]
1 | Cc1cc(C(F)(C(F)(F)F)C(F)(F)F)cc(C)c1-n1cc(-c2cnc(C)c(C(=O)NC3CC3)c2)nn1 [Example 1, N-cyclopropyl-5-[1-[2,6-dimethyl-4-[1,2,2,2-tetrafluoro-1-(trifluoromethyl)ethyl]phenyl]triazol-4-yl]-2-methylpyridine-3-carboxamide] | 100 | 100 | 90 | 100 | 100 | 100 | 3.3 | 3.33 | 100 | 100 | 100 | 80 | 100 | 100 | – | – | –
2 | Cc1cc(C(F)(C(F)(F)F)C(F)(F)F)cc(C)c1-n1cc(-c2cnc(Cl)c(C(=O)NC3CC3)c2)nn1 [Example 2] | 100 | 100 | 90 | 100 | 100 | 100 | – | – | 100 | 100 | 100 | 100 | 90 | 100 | 3.8 | – | –
3 | Cc1ncc(-c2cn(-c3c(Cl)cc(C(F)(C(F)(F)F)C(F)(F)F)cc3Cl)nn2)cc1C(=O)NC1CC1 [Example 5] | 100 | 100 | – | 100 | 100 | 100 | – | – | 100 | 100 | 100 | 100 | 100 | 100 | 3.4 | – | –
4 | O=C(NC1CC1)c1cc(-c2cn(-c3c(Cl)cc(C(F)(C(F)(F)F)C(F)(F)F)cc3C(F)(F)F)nn2)cnc1Cl [Example 16] | 100 | 100 | 90 | – | 100 | 100 | – | – | 100 | 100 | 100 | – | 100 | – | 4.0 | 90-100% | 90-100%
